Laboratory results taken from patent publication US20100209846A1, “NEGATIVE-WORKING IMAGEABLE ELEMENTS” (priority 2009, published 2010).

Experiment: Solubility of contrast dye in water
Assay type: physicochemical

| SMILES | Solubility of contrast dye in 1 liter water [g] |
| --- | --- |
| CCCCCCC(CCCCCC)c1ccc(/C=C2/C(=C(C#N)C#N)c3ccccc3S2(=O)=O)c(C)c1 | 0.25 |
| CN(C)c1ccc(C(=C2C=CC(=[N+](C)C)C=C2)c2ccc(N(C)C)cc2)cc1 [Crystal Violet] | 4 |
